Measurements as given in patent US20220305025A1, “PHOSPHATIDYLSERINE BINDING MOLECULES BLOCK IMMUNE SUPPRESSION OF TUMOR ASSOCIATED EXOSOMES” (priority 2019, published 2022).
“Also recorded” adds a separate entry of the source. Like-named read-outs stand apart in the source and are kept apart here.

Columns and labels:
DM6-Mut tumor xenografts = details: for tumor escape / tumor growth: NSG mice bearing DM6-Mut xenografts treated with TKT cells, ExoBlock 64 mg/kg i.p., nivolumab 10 mg/kg
Text: (A) Experimental scheme and timeline (B-C) Tumor burdens on respective days in the X-mouse model in anti-PD-1 experiment (B) or the IL-12 experiment (C).
The X mouse model was established to allow for the rapid generation of human tumors and an in vivo method of evaluation of the anti-tumor responses of patient-derived T cells to patient tumor-specific peptides expressed by the established tumors.
There are 7 different T cells derived for 3 different patients available for our studies (Table 1). […] The melanoma tumor target cells (DM6) are either transduced with a tandem mini-gene expressing GFP or with luciferase and each are genetically modified to express either the mutated peptide (DM6-Mut), tumor target or the wild type peptide (DM6-WT) control target. Tumor growth in the X mouse model is monitored either by post-mortem quantification of GFP fluorescence in the omentum or by quantification of luciferase-dependent bioluminescence of the mice by live imaging.
The X-mouse model was used to test the efficacy of ExoBlock. ExoBlock was injected i.p. into NSG mice bearing DM6-Mut tumor xenografts and treated with TKT cells.

DM6-Mut cells = assay: Direct effect on tumor target cells in vitro; assay type: cell-based, human; details: at the doses used
[1] = tested on: apoptotic cells (Jurkat cells); details: Jurkat cells treated with 10 μM Etoposide for 20 h; equimolar or titrating amounts
Protocol: Jurkat cells were treated with 10 μM Etoposide for 20 h to induce apoptosis. The cells were then stained with PSVue with equimolar or titrating molar amounts of ExoBlock. Sytox Red was used to eliminate dead cells from the analysis. The experiment was done in triplicate wells.

[2] = mouse, in vivo, 64 mg/kg
Text: (§1) Mice were euthanized 14 days after treatment with the drugs.

[3] = Systemic organ toxicity study in mice; details: dose 64 mg/kg
Text: as §1

[4] = tested on: tumor associated exosomes / T cells; assay: Reversal of exosome-mediated arrest of T cell activation (CD3/CD28-activated PBL with exosomes)
Protocol: PBL were either unactivated (Unt) or activated for 2 h (hours) with immobilized antibodies to CD3 and CD28 with exosomes (Exo), exosomes with Zn-T-DPA and Exoblock (Exo+Zn-T-DPA and Exo+ExoBlock) or without (No Exo) exosomes. NFκB expression was detected using confocal microscopy.
T cells from normal donor peripheral blood leukocytes (NDPBL) were activated for 2 h with immobilized antibodies to CD3 and CD28 in the presence or absence of exosomes and 10 μM ExoBlock. The percentage of activation was determined by monitoring the upregulation of CD69. Percentage of inhibition and reversal were calculated.

Substance	avidity of PS binding (PS binding avidity)	tumor escape / tumor growth (DM6-Mut tumor xenografts)	change in tumor burden (DM6-Mut tumor xenografts; day 25, 64 mg/kg i.p.)	interference with anti-tumor responses of tumor-specific T cells (DM6-Mut tumor xenografts; mouse model)	toxicities in pre-clinical efficacy studies (DM6-Mut tumor xenografts; mouse model)	direct killing / suppression of tumor target cells (DM6-Mut cells)	competitive inhibition of PSVue 499 binding [1]	histopathology of organs [2]	systemic organ toxicity (NOAEL) [3]	batch consistency of reversal of immunosuppressive effect of exosomes ([4]; 10 μM ExoBlock, CD69 upregulation, NDPBL T cells)	blocking exosomal immune suppression in vitro ([4]; PBL activated 2 h with immobilized antibodies to CD3 and CD28 with exosomes)	reversal of the exosome-mediated arrest of T cell function ([4]; comparative studies, FIG. 2A-C)	tumor escape / tumor growth (DM6-Mut tumor xenografts; listed as anti-PD-1)
(ZnDPA)6-DP-15K [ExoBlock]	bind PS with a high avidity; also recorded: greater avidity to PS as compared to Zn-T-DPA	significantly delayed tumor escape; also recorded: suppresses tumor growth and has comparable efficacy to anti-PD1 treatment	two-fold change in tumor burden	does not interfere with the anti-tumor responses of the tumor-specific T cells	no detectable toxicities	does not directly kill the tumor target cells; also recorded: no direct suppressive effect	competitively inhibits binding of PSVue 499 to apoptotic cells in a dose-dependent manner	No pathology was observed	NOAEL was observed	consistent in their ability to reverse immunosuppressive effect of exosomes	more effective than both anti-PS antibody and annexin V; also recorded: inhibits exosome-mediated arrest of T cell activation	75-96%	
nivolumab [reference compound]		enhanced the tumor suppression and delayed, but did not prevent tumor recurrence											delay tumor escape
